# Values of other authors, collected in publication PMC4026281 (Journal of neurochemistry, 2012).
# Tested on: rat α6/3β2 chimeric nAChRs
# Details: cited from earlier work
substance,measurement,value
α-conotoxin MII [α-CtxMII],"t1/2 of recovery from α-CtxMII inhibition, rat α6/3β2 chimeric nAChRs",> 20 min
